Values quoted from earlier work as cited in paper PMC11345841, “Exploring 2-Sulfonylpyrimidine Warheads as Acrylamide Surrogates for Targeted Covalent Inhibition: A BTK Story” (Journal of Medicinal Chemistry, 2024).
Read-outs that look alike come from different tables or passages of the source.

Test system: 468 human kinases
Details: cited from earlier work; for %Control: @1000nM, ref Buhimschi et al. 2018; for Percent of Control: ref Buhimschi/Crews

C=CC(=O)N1CCC[C@@H](n2nc(-c3ccc(Oc4ccccc4)cc3)c3c(N)ncnc32)C1 [Compound 1g, Ibrutinib, reference compound]
number of kinases with ≥90 inhibition belonging to the TK family (including BTK) (1 μM): 36 kinases
number of kinases with ≥90 inhibition out of 468 (1 μM): 39 kinases
%Control (ABL1(E255K)-phosphorylated): 71%
%Control (ABL1(F317I)-nonphosphorylated): 30%
%Control (ABL1(F317L)-nonphosphorylated): 25%
%Control (ABL1(F317L)-phosphorylated): 49%
%Control (ABL1(H396P)-nonphosphorylated): 18%
%Control (ABL1(Q252H)-nonphosphorylated): 6.4%
%Control (ABL1(Q252H)-phosphorylated): 67%
%Control (ABL1(T315I)-nonphosphorylated): 100%
%Control (ABL1-nonphosphorylated): 9%
%Control (ABL1-phosphorylated): 69%
%Control (ABL2): 43%
%Control (ALK(C1156Y)): 91%
%Control (ALK(L1196M)): 96%
%Control (BMX): 38%
%Control (BRK): 1.4%
%Control (BTK): 0%
%Control (CSK): 2.4%
%Control (DDR2): 100%
%Control (EGFR(E746-A750del)): 5.1%
%Control (EGFR(G719C)): 0.35%
%Control (EGFR(G719S)): 0.45%
%Control (EGFR(L747-E749del, A750P)): 0.3%
%Control (EGFR(L747-S752del, P753S)): 12%
%Control (EGFR(L747-T751del,Sins)): 1.4%
%Control (EGFR(L858R)): 1.4%
%Control (EGFR(L858R,T790M)): 6.9%
%Control (EGFR(L861Q)): 0.1%
%Control (EGFR(S752-I759del)): 0%
%Control (EGFR(T790M)): 0.15%
%Control (EGFR): 0%
%Control (EPHA2): 96%
%Control (EPHA5): 100%
%Control (EPHA7): 100%
%Control (EPHA8): 78%
%Control (EPHB2): 100%
%Control (EPHB3): 89%
%Control (EPHB4): 100%
%Control (EPHB6): 8.6%
%Control (ERBB2): 0%
%Control (ERBB3): 0%
%Control (FAK): 93%
%Control (FER): 95%
%Control (FES): 100%
%Control (FGFR1): 42%
%Control (FGFR2): 42%
%Control (FGFR3(G697C)): 35%
%Control (FGFR3): 45%
%Control (FGFR4): 100%
%Control (FGR): 10%
%Control (FLT3(D835H)): 18%
%Control (FLT3(D835V)): 1.9%
%Control (FLT3(D835Y)): 44%
%Control (FLT3(K663Q)): 38%
%Control (FLT3(N841I)): 31%
%Control (FLT3(R834Q)): 54%
%Control (FLT3-autoinhibited): 94%
%Control (FLT3): 26%
%Control (FLT4): 38%
%Control (FRK): 11%
%Control (FYN): 5.3%
%Control (HCK): 0.3%
%Control (IGF1R): 100%
%Control (INSR): 87%
%Control (INSRR): 96%
%Control (ITK): 6.8%
%Control (JAK1(JH1domain-catalytic)): 100%
%Control (JAK1(JH2domain-pseudokinase)): 91%
%Control (JAK2(JH1domain-catalytic)): 87%
%Control (JAK3(JH1domain-catalytic)): 0%
%Control (KIT(A829P)): 21%
%Control (KIT(D816H)): 78%
%Control (KIT(L576P)): 42%
%Control (KIT(V559D)): 31%
%Control (KIT(V559D,T670I)): 94%
%Control (KIT(V559D,V654A)): 91%
%Control (KIT): 57%
%Control (LCK): 0.2%
%Control (LYN): 9.5%
%Control (MERTK): 74%
%Control (MET(M1250T)): 56%
%Control (MET(Y1235D)): 87%
%Control (PDGFRA): 48%
%Control (PDGFRB): 35%
%Control (RET(M918T)): 14%
%Control (RET(V804M)): 72%
%Control (RET): 9.3%
%Control (ROS1): 97%
%Control (SRC): 3.2%
%Control (SYK): 91%
%Control (TEC): 1.9%
%Control (TIE1): 61%
%Control (TIE2): 58%
%Control (TNK1): 23%
%Control (TNK2): 35%
%Control (TRKB): 82%
%Control (TXK): 3.8%
%Control (TYK2(JH1domain-catalytic)): 89%
%Control (TYRO3): 96%
%Control (YES): 2.6%
%Control (ZAP70): 77%
Percent of Control (ABL1(F317I)-nonphosphorylated): 30%
Percent of Control (ABL1(F317I)-phosphorylated): 67%
Percent of Control (ABL1(F317L)-nonphosphorylated): 25%
Percent of Control (ABL1(F317L)-phosphorylated): 49%
Percent of Control (ABL1(H396P)-nonphosphorylated): 18%
Percent of Control (ABL1(Q252H)-nonphosphorylated): 6.4%
Percent of Control (ABL1(Q252H)-phosphorylated): 67%
Percent of Control (ABL1(Y253F)-phosphorylated): 49%
Percent of Control (ABL1-nonphosphorylated): 9%
Percent of Control (ABL2): 43%
Percent of Control (ASK2 (MAP3K6)): 54%
Percent of Control (BLK): 0.1%
Percent of Control (BMX): 38%
Percent of Control (BRAF(V600E)): 59%
Percent of Control (BRK (PTK6)): 1.4%
Percent of Control (BTK): 0%
Percent of Control (CDK2): 66%
Percent of Control (CSK): 2.4%
Percent of Control (CSNK1E): 44%
Percent of Control (CTK (MATK)): 66%
Percent of Control (EGFR(E746-A750del)): 5.1%
Percent of Control (EGFR(G719C)): 0.35%
Percent of Control (EGFR(G719S)): 0.45%
Percent of Control (EGFR(L747-E749del, A750P)): 0.3%
Percent of Control (EGFR(L747-S752del, P753S)): 12%
Percent of Control (EGFR(L747-T751del,Sins)): 1.4%
Percent of Control (EGFR(L858R)): 1.4%
Percent of Control (EGFR(L858R,T790M)): 6.9%
Percent of Control (EGFR(L861Q)): 0.1%
Percent of Control (EGFR(S752-I759del)): 0%
Percent of Control (EGFR(T790M)): 0.15%
Percent of Control (EGFR): 0%
Percent of Control (EPHB6): 8.6%
Percent of Control (ERBB2): 0%
Percent of Control (ERBB3): 0%
Percent of Control (ERBB4): 0%
Percent of Control (ERN1): 38%
Percent of Control (FGFR1): 42%
Percent of Control (FGFR2): 42%
Percent of Control (FGFR3(G697C)): 35%
Percent of Control (FGFR3): 45%
Percent of Control (FGR): 10%
Percent of Control (FLT3(D835H)): 18%
Percent of Control (FLT3(D835V)): 1.9%
Percent of Control (FLT3(D835Y)): 44%
Percent of Control (FLT3(ITD)): 55%
Percent of Control (FLT3(ITD,D835V)): 58%
Percent of Control (FLT3(K663Q)): 38%
Percent of Control (FLT3(N841I)): 31%
Percent of Control (FLT3(R834Q)): 54%
Percent of Control (FLT3): 26%
Percent of Control (FLT4): 38%
Percent of Control (FRK): 11%
Percent of Control (FYN): 5.3%
Percent of Control (HCK): 0.3%
Percent of Control (ITK): 6.8%
Percent of Control (KIT(A829P)): 21%
Percent of Control (KIT(L576P)): 42%
Percent of Control (KIT(V559D)): 31%
Percent of Control (KIT): 57%
Percent of Control (LATS2): 66%
Percent of Control (LCK): 0.2%
Percent of Control (LIMK1): 41%
Percent of Control (LOK (STK10)): 41%
Percent of Control (LZK (MAP3K13)): 58%
Percent of Control (MAP3K2): 54%
Percent of Control (MAP3K15): 53%
Percent of Control (MEK1 (MAP2K1)): 14%
Percent of Control (MEK2 (MAP2K2)): 21%
Percent of Control (MEK5 (MAP2K5)): 0.8%
Percent of Control (MET(M1250T)): 56%
Percent of Control (MKK7 (MAP2K7)): 0.7%
Percent of Control (MKNK2): 50%
Percent of Control (NDR2 (STK38L)): 48%
Percent of Control (PDGFRA): 48%
Percent of Control (PDGFRB): 35%
Percent of Control (RET(M918T)): 14%
Percent of Control (RET): 9.3%
Percent of Control (RIPK2): 3.7%
Percent of Control (RIPK5 (DSTYK)): 15%
Percent of Control (SNARK (NUAK2)): 68%
Percent of Control (SRC): 3.2%
Percent of Control (SRMS): 0%
Percent of Control (SRPK1): 54%
Percent of Control (STK35): 55%
Percent of Control (STK36): 60%
Percent of Control (TEC): 1.9%
Percent of Control (TIE2 (TEK)): 58%
Percent of Control (TNK1): 23%
Percent of Control (TNK2): 35%
Percent of Control (TNNI3K): 53%
Percent of Control (TRKA (NTRK1)): 67%
Percent of Control (TRPM6): 54%
Percent of Control (TTK): 40%
Percent of Control (TXK): 3.8%
Percent of Control (VEGFR2 (KDR)): 59%
Percent of Control (WNK2): 65%
Percent of Control (YANK2 (STK32B)): 49%
Percent of Control (YES (YES1)): 2.6%
Percent of Control (ZAK): 38%
